From US20240002393A1, “SUBSTITUTED BENZO[f][l ,2,4JTRIAZOL0[4,3-a][l ,4J[…] GABA A GAMMA! POSITIVE ALLOSTERIC MODULATORS” (Hoffmann-La Roche Inc., priority 2020, published 2024)
Values joined by “and” are separate entries in the source; they are usually repeats but may differ in a detail not shown here. Equal values may be shown once.

Legend:
[1] = molecular target: human GABAA α5β2γ1 receptor (Homo sapiens (Human), UniProt P31644+Q8N1C3); assay: Radioligand binding assay, [3H]RO7239181 competition, γ1-containing GABAA subtypes; conditions: HEK293F membranes, mean of two determinations
Procedure: The affinity of compounds at GABAA γ1 subunit-containing receptors was measured by competition for [^3H]RO7239181 (67.3 Ci/mmol; Roche) binding to membranes from HEK293F cells (ThermoFisher R79007) expressing human (transiently transfected) receptors of composition α5β2γ1, α2β2γ1, α1β2γ1. For better protein expression of the α2 subunit-containing receptors, the 28 amino acid long signal peptide (Met1 to Ala28) of the human GABAA α2 subunit was substituted by the 31 amino acid long signal peptide (Met1 to Ser31) of human GABAA α5 subunit.
(§1) Harvested pellets from HEK293F cells expressing the different GABAA receptor subtypes were resuspended in Mannitol Buffer pH 7.2-7.4 (Mannitol 0.29M, Triethylamine 10 mM, Acetic acid 10 mM, EDTA 1 mM plus protease inhibitors (20 tablets Complete, Roche Diagnostics Cat. No. 05 056 489 001 per liter)), washed two times and then resuspended at 1:10 to 1:15 dilution in the same buffer. Cell disruption was performed by stirring the suspension in a Parr vessel #4637 at 435 psi for 15 minutes, and then the suspensions were centrifuged at 1000×g for 15 minutes at 4° C. (Beckman Avanti J-HC; rotor JS)-4.2). The supernatant (S1) was transferred in a 21 Schott flask and the pellet (P1) was resuspended with Mannitol Buffer up to 175 ml. The resuspended pellet was transferred into a 250 ml Corning centrifugal beaker and centrifuged at 1500×g for 10 minutes at 4° C. (Beckman Avanti J-HC; rotor JS)-4.2). The supernatant (S1) was then transferred in the 21 Schott flask and the pellet was discarded. The supernatants (S1) were centrifuged in 500 ml Beckman polypropylene centrifugal beaker at 15,000×g for 30 minutes at 4° C. (Beckman Avanti J-20 XP; rotor JLA-10.500). The pellet (P2) was resuspended with Mannitol Buffer 1:1 and frozen at −80° C. The supernatant (S2) was centrifuged in 100 ml Beckman polypropylene centrifugal tubes at 48000×g for 50 minutes at […] (Beckman Avanti J-20 XP; rotor JA-18). The supernatant (S3) was discarded and the pellet (P3) was resuspended with 1:1 Mannitol Buffer. The P2 and P3 protein concentration was determined with the BIORAD Standard assay method with bovine serum albumin as standard and measured on the NANO-Drop 1000. The membrane suspension was aliquots (500 μl per tube) and stored at −80° C. until required.
(§2) Membrane homogenates were resuspended and polytronised (Polytron PT1200E Kinematica AG) in Potassium Phosphate 10 mM, KCl 100 mM binding buffer at pH 7.4 to a final assay concentration determined with a previous experiment.
Radioligand binding assays were carried out in a volume of 200 µL (96-well plates) which contained 100 μL of cell membranes, [^3H]RO7239181 at a concentration of 1.5 nM (α5β2γ1) or 20-30 nM (α1β2γ1, 2β2γ1) and the test compound in the range of [0.3-10000]×10^−9 M. Nonspecific binding was defined by 10×10^−6 (α5β2γ1) and 30×10^−6 M RO7235136 and typically represented less than 5% (α5β2γ1) and less than 20% (α1β2γ1, α2β2γ1) of the total binding. Assays were incubated to equilibrium for 1 hour at 4° C. and then, membranes were filtered onto unifilter (96-well white microplate with bonded GF/C filters preincubated 20-50 minutes in 0.3% Polyethylenimine) with a Filtermate 196 harvester (Packard BioScience) and washed 4 times with cold Potassium Phosphate 10 mM pH 7.4, KCl 100 mM binding buffer. After drying, filter-retained radioactivity was detected by liquid scintillation counting. K, values were calculated using Excel-Fit (Microsoft) and are the means of two determinations.
Representative test results, obtained by the above described assay measuring binding affinity to HEK293 cells expressing human (h) receptors, are shown in the Table 1.

[2] = molecular target: human GABAA α1β2γ1 receptor (Homo sapiens (Human), UniProt P14867+Q8N1C3); assay: as above; conditions: HEK293F membranes, [3H]RO7239181 20-30 nM, mean of two determinations
Procedure: (§3) The affinity of compounds at GABAA γ1 subunit-containing receptors was measured by competition for [^3H]RO7239181 (67.3 Ci/mmol; Roche) binding to membranes from HEK293F cells (ThermoFisher R79007) expressing human (transiently transfected) receptors of composition α5β2γ1, α2β2γ1, α1β2γ1.
as §1, §2
(§4) Assays were incubated to equilibrium for 1 hour at 4° C. and then, membranes were filtered onto unifilter (96-well white microplate with bonded GF/C filters preincubated 20-50 minutes in 0.3% Polyethylenimine) with a Filtermate 196 harvester (Packard BioScience) and washed 4 times with cold Potassium Phosphate 10 mM pH 7.4, KCl 100 mM binding buffer. After drying, filter-retained radioactivity was detected by liquid scintillation counting. K, values were calculated using Excel-Fit (Microsoft) and are the means of two determinations.

[3] = molecular target: human GABAA α2β2γ1 receptor (Homo sapiens (Human), UniProt P47869+Q8N1C3); assay: as above; conditions: for Ki: HEK293F membranes, [3H]RO7239181 20-30 nM, mean of two determinations, read-out: Ki h-GABAA α2β2γ1; for γ2/γ1 Selectivity Ratio: Ki α1β3γ2 (nM)/Ki α2β2γ1 (nM); for LogSel: Log[Ki α1β3γ2 (nM)/Ki α2β2γ1 (nM)]
Procedure: as §3, §1, §2, §4

[4] = molecular target: human GABAA α1β3γ2 receptor (Homo sapiens (Human), UniProt P14867+P18507); assay: Radioligand binding assay, [3H]Flumazenil competition, γ2-containing GABAA subtypes; conditions: HEK293F membranes, [3H]Flumazenil 1 nM, mean of two determinations; read-out: Ki h-GABAA α1β3γ2
Procedure: The affinity of compounds at GABAA γ2 subunit-containing receptors was measured by competition for [^3H]Flumazenil (81.1 Ci/mmol; Roche) binding to HEK293F cells expressing human (transiently transfected) receptors of composition α1β3γ2.
Harvested pellets from HEK293F cells expressing the different GABAA γ2 receptor subtypes were resuspended in Mannitol Buffer pH 7.2-7.4 and processed as described above for the cells expressing the GABAA γ1 subunit-containing receptors.
Assays were incubated to equilibrium for 1 hour at 4° C. and harvested onto GF/C uni-filters (Packard) by filtration using a Packard harvester and washing with ice-cold wash buffer (50 mM Tris; pH 7.5). After drying, filter-retained radioactivity was detected by liquid scintillation counting. Ki values were calculated using Exel-Fit (Microsoft) and are the means of two determinations.

Row | Structure (SMILES) | Ki [1] | Ki [2] | Ki [3] | γ2/γ1 Selectivity Ratio [3] | LogSel [3] | Ki [4]
1 | C[C@@H]1N=C(c2c(F)cccc2F)c2c(ccc(C(F)(F)F)c2Cl)-n2c(CO)nnc21 [Example 103, [(4S)-7-chloro-6-(2,6-difluorophenyl)-4-methyl-8-(trifluoromethyl)-4H-[1,2,4]triazolo[4,3-a][1,4]benzodiazepin-1-yl]methanol] | 5.4 nM | 49.8 nM | 50.4 nM | 67.0 | 1.83 | 3380 nM
2 | Cc1nnc2n1-c1ccc(C(C)(F)F)c(Cl)c1C(c1c(F)cccc1F)=N[C@H]2C [Example 93, (4S)-7-chloro-8-(1,1-difluoroethyl)-6-(2,6-difluorophenyl)-1,4-dimethyl-4H-[1,2,4]triazolo[4,3-a][1,4]benzodiazepine] | 3.1 nM | 85.1 nM | 39.1 nM | 152.1 | 2.18 | 5960 nM
3 | Cc1nnc2n1-c1ccc(C(F)(F)F)c(Cl)c1C(c1c(F)cccc1F)=N[C@H]2C [Example 92, (4S)-7-chloro-6-(2,6-difluorophenyl)-1,4-dimethyl-8-(trifluoromethyl)-4H-[1,2,4]triazolo[4,3-a][1,4]benzodiazepine] | 1.8 nM | 48.3 nM | 21.9 nM | 102.0 | 2.01 | 2230 nM
4 | OC1N=C(c2ccccc2F)c2c(ccc(Br)c2Cl)-n2c(-c3cccnn3)nnc21 (stereo not drawn) [Example 35, 8-bromo-7-chloro-6-(2-fluorophenyl)-1-pyridazin-3-yl-4H-[1,2,4]triazolo[4,3-a][1,4]benzodiazepin-4-ol] | 8.4 nM | 640 nM | 78.6 nM | 35.7 | 1.55 | 2800 nM
5 | C[C@@H]1N=C(c2c(F)cccc2F)c2c(ccc(Cl)c2Br)-n2c(-c3ccncn3)nnc21 [Example 74, (4S)-7-bromo-8-chloro-6-(2,6-difluorophenyl)-4-methyl-1-pyrimidin-4-yl-4H-[1,2,4]triazolo[4,3-a][1,4]benzodiazepine] | 2.6 nM | 28.3 nM | 17.3 nM | 107.6 | 2.03 | 1870 nM
6 | Cc1nnc2n1-c1ccc(Br)c(Cl)c1C(c1ncccc1F)=N[C@H]2C [Example 85, (4S)-8-bromo-7-chloro-6-(3-fluoro-2-pyridyl)-1,4-dimethyl-4H-[1,2,4]triazolo[4,3-a][1,4]benzodiazepine] | 3.3 nM | 63.6 nM | 53 nM | 13.3 | 1.12 | 705 nM
7 | Cc1nnc2n1-c1ccc(Cl)c(Cl)c1C(c1c(F)cccc1F)=N[C@H]2C [Example 82, (4S)-7,8-dichloro-6-(2,6-difluorophenyl)-1,4-dimethyl-4H-[1,2,4]triazolo[4,3-a][1,4]benzodiazepine] | 0.6 nM | 12.8 nM | 10.6 nM | 24.6 | 1.39 | 261 nM
8 | C[C@@H]1N=C(c2ncccc2F)c2c(ccc(Cl)c2Cl)-n2c(-c3ccncn3)nnc21 [Example 66, (4S)-7,8-dichloro-6-(3-fluoro-2-pyridyl)-4-methyl-1-pyrimidin-4-yl-4H-[1,2,4]triazolo[4,3-a][1,4]benzodiazepine] | 8 nM | 231 nM | 97.8 nM | 33.5 | 1.53 | 3280 nM
9 | Cc1nnc2n1-c1ccc(C(F)F)c(Cl)c1C(c1c(F)cccc1F)=N[C@H]2C [Example 99, (4S)-7-chloro-8-(difluoromethyl)-6-(2,6-difluorophenyl)-1,4-dimethyl-4H-[1,2,4]triazolo[4,3-a][1,4]benzodiazepine] | 3.2 nM | 63.4 nM | 55.4 nM | 36.4 | 1.56 | 2020 nM
10 | Cc1ccc(-c2nnc3n2-c2ccc(Cl)c(Cl)c2C(c2c(F)cccc2F)=N[C@H]3C)nn1 [Example 86, (4S)-7,8-dichloro-6-(2,6-difluorophenyl)-4-methyl-1-(6-methylpyridazin-3-yl)-4H-[1,2,4]triazolo[4,3-a][1,4]benzodiazepine] | 1.4 nM | 5.9 nM | 4.4 nM | 195.1 and 195 | 2.29 and 2.3 | 860 nM
11 | C[C@@H]1N=C(c2ccccc2F)c2c(ccc(Br)c2Cl)-n2cnnc21 [Example 30, (4S)-8-bromo-7-chloro-6-(2-fluorophenyl)-4-methyl-4H-[1,2,4]triazolo[4,3-a][1,4]benzodiazepine] | 2.6 nM | 65 nM | 43.6 nM | 13.3 | 1.13 and 1.1 | 582 nM
12 | C[C@@H]1N=C(c2ncccc2F)c2c(ccc(Cl)c2Cl)-n2c(-c3cccnn3)nnc21 [Example 63, (4S)-7,8-dichloro-6-(3-fluoro-2-pyridyl)-4-methyl-1-pyridazin-3-yl-4H-[1,2,4]triazolo[4,3-a][1,4]benzodiazepine] | 5.6 nM | 333 nM | 39.4 nM | 103.5 | 2.02 | 4080 nM
13 | Cc1ccc(-c2nnc3n2-c2ccc(Cl)c(Br)c2C(c2c(F)cccc2F)=N[C@H]3C)nn1 [Example 88, (4S)-7-bromo-8-chloro-6-(2,6-difluorophenyl)-4-methyl-1-(6-methylpyridazin-3-yl)-4H-[1,2,4]triazolo[4,3-a][1,4]benzodiazepine] | 3.6 nM | 34.5 nM | 10.9 nM | 133.6 | 2.13 | 1450 nM
